According to PMC5578959, “Selective LRRK2 kinase inhibition reduces phosphorylation of endogenous Rab10 and Rab12 in human peripheral mononuclear blood cells” (Scientific Reports, 2017):

Legend:
Assay in all cases: KiNativ profiling in human PBMCs
Type in all cases: binding
AKT1 = test system: T1, AKT1; settings: ATP Loop
T1 construct: purchased ActivX Technologies (KiNativ)
Summary of the method: (§1)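 Live human peripheral blood mononuclear cells were treated with compound at 1 µM and 0.1 µM, then kinase engagement was profiled by the KiNativ procedure.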

BARK1 = test system: T2, BARK1; settings: Lys2
T2 construct: purchased ActivX Technologies (KiNativ)
Summary of the method: as §1

BRAF = test system: T3, BRAF; settings: Lys2
T3 construct: purchased ActivX Technologies (KiNativ)
Summary of the method: as §1

CDK5 = test system: T4, CDK5
T4 construct: purchased ActivX Technologies (KiNativ)
Summary of the method: as §1

CSK = test system: T5, CSK
T5 construct: purchased ActivX Technologies (KiNativ)
Summary of the method: as §1

DGKA = test system: T6, DGKA; settings: ATP
T6 construct: purchased ActivX Technologies (KiNativ)
Summary of the method: as §1

DNAPK = test system: T7, DNAPK; settings: ATP
T7 construct: purchased ActivX Technologies (KiNativ)
Summary of the method: as §1

Erk1 = test system: T8, Erk1; settings: Lys2
T8 construct: purchased ActivX Technologies (KiNativ)
Summary of the method: as §1

Erk2 = test system: T9, Erk2; settings: Lys2
T9 construct: purchased ActivX Technologies (KiNativ)
Summary of the method: as §1

FGR = test system: T10, FGR; settings: Activation Loop
T10 construct: purchased ActivX Technologies (KiNativ)
Summary of the method: as §1

FRAP = test system: T11, FRAP; settings: 0.1µM; ATP
T11 construct: purchased ActivX Technologies (KiNativ)
Summary of the method: as §1

GSK3A = test system: T12, GSK3A; settings: Lys2
T12 construct: purchased ActivX Technologies (KiNativ)
Summary of the method: as §1

HCK = test system: T13, HCK
T13 construct: purchased ActivX Technologies (KiNativ)
Summary of the method: as §1

IRAK3 = test system: T14, IRAK3; settings: Lys1
T14 construct: purchased ActivX Technologies (KiNativ)
Summary of the method: as §1

JAK1 domain1 = test system: T15, JAK1 domain1; settings: Protein Kinase Domain
T15 construct: JAK1 domain1; purchased ActivX Technologies (KiNativ)
Summary of the method: as §1

JAK1 domain2 = test system: T16, JAK1 domain2
T16 construct: JAK1 domain2; purchased ActivX Technologies (KiNativ)
Summary of the method: as §1

JNK1,JNK2,JNK3 = settings: Lys2
Summary of the method: as §1

KSR1,KSR2 = settings: Activation Loop
Summary of the method: as §1

LKB1 = test system: T17, LKB1; settings: Lys2
T17 construct: purchased ActivX Technologies (KiNativ)
Summary of the method: as §1

LOK = test system: T18, LOK
T18 construct: purchased ActivX Technologies (KiNativ)
Summary of the method: as §1

MST3 = test system: T19, MST3
T19 construct: purchased ActivX Technologies (KiNativ)
Summary of the method: as §1

NEK1 = test system: T20, NEK1; settings: Lys2
T20 construct: purchased ActivX Technologies (KiNativ)
Summary of the method: as §1

NEK6,NEK7 = settings: Lys2
Summary of the method: as §1

PIK3CB = test system: T21, PIK3CB; settings: ATP
T21 construct: purchased ActivX Technologies (KiNativ)
Summary of the method: as §1

PIK3CD = test system: T22, PIK3CD; settings: ATP
T22 construct: purchased ActivX Technologies (KiNativ)
Summary of the method: as §1

PIP5K3 = test system: T23, PIP5K3; settings: ATP
T23 construct: purchased ActivX Technologies (KiNativ)
Summary of the method: as §1

PYK2 = test system: T24, PYK2
T24 construct: purchased ActivX Technologies (KiNativ)
Summary of the method: as §1

RSK1,RSK2,RSK3 domain1 = settings: Lys2
Summary of the method: as §1

RSK2 domain1 = test system: T25, RSK2 domain1
T25 construct: RSK2 domain1; purchased ActivX Technologies (KiNativ)
Summary of the method: as §1

RSKL1 domain1 = test system: T26, RSKL1 domain1; settings: ATP
T26 construct: RSKL1 domain1; purchased ActivX Technologies (KiNativ)
Summary of the method: as §1

SMG1 = test system: T27, SMG1; settings: ATP
T27 construct: purchased ActivX Technologies (KiNativ)
Summary of the method: as §1

TLK1 = test system: T28, TLK1
T28 construct: purchased ActivX Technologies (KiNativ)
Summary of the method: as §1

TLK2 = test system: T29, TLK2
T29 construct: purchased ActivX Technologies (KiNativ)
Summary of the method: as §1

p38d,p38g = settings: Lys2
Summary of the method: as §1

With `Cn1cc(-c2c[nH]c3ncnc(N4CCOCC4)c23)cc1C#N` [PFE-360] the “% Inhibition” value (AKT1; 0.1µM) was -6.3%, the “% Inhibition” value (AKT1; 1µM) was -3.2% and the “% Inhibition” value (BARK1; 0.1µM) was -4.8%. For the same compound, the “% Inhibition” value (BARK1; 1µM) was -29.7%, the “% Inhibition” value (BRAF; 0.1µM) was -13.9% and the “% Inhibition” value (BRAF; 1µM) was -14.3%. The “% Inhibition” value (CDK5; 0.1µM, Lys1) was -2.7%, the “% Inhibition” value (CDK5; 0.1µM, Lys2) was 3.9% and the “% Inhibition” value (CDK5; 1µM, Lys1) was -6.7%. For the same compound, the “% Inhibition” value (CDK5; 1µM, Lys2) was -7.1%, the “% Inhibition” value (CSK; 0.1µM, Activation Loop) was -3.4% and the “% Inhibition” value (CSK; 0.1µM, Lys1) was 0.7%. The “% Inhibition” value (CSK; 1µM, Activation Loop) was -10.5%, the “% Inhibition” value (CSK; 1µM, Lys1) was -10.4% and the “% Inhibition” value (DGKA; 0.1µM) was 1.4%. The “% Inhibition” value (DGKA; 1µM) was -4.5%, the “% Inhibition” value (DNAPK; 0.1µM, peptide EHPFLVKGGEDLR) was 0.3% and the “% Inhibition” value (DNAPK; 0.1µM, peptide KGGSWIQEINVAEK) was -1.9%. The “% Inhibition” value (DNAPK; 1µM, peptide EHPFLVKGGEDLR) was -12.5%, the “% Inhibition” value (DNAPK; 1µM, peptide KGGSWIQEINVAEK) was -4.9% and the “% Inhibition” value (Erk1; 0.1µM) was 7.7%. The “% Inhibition” value (Erk1; 1µM) was 3.7%, the “% Inhibition” value (Erk2; 0.1µM) was 9.1% and the “% Inhibition” value (Erk2; 1µM) was 5.3%. The “% Inhibition” value (FGR; 0.1µM) was -2.5%, the “% Inhibition” value (FGR; 1µM) was -6.6% and the “% Inhibition” value (FRAP) was -1.2%. The “% Inhibition” value (GSK3A; 0.1µM) was 10.6%, the “% Inhibition” value (GSK3A; 1µM) was 19.8% and the “% Inhibition” value (HCK; 0.1µM, Activation Loop) was -0.8%. The “% Inhibition” value (HCK; 0.1µM, Lys1) was -20.8%, the “% Inhibition” value (HCK; 1µM, Activation Loop) was -4.1% and the “% Inhibition” value (HCK; 1µM, Lys1) was 12.3%. The “% Inhibition” value (IRAK3; 0.1µM) was -1.2%, the “% Inhibition” value (IRAK3; 1µM) was 3% and the “% Inhibition” value (JAK1 domain1; 0.1µM) was 16.2%. The “% Inhibition” value (JAK1 domain1; 1µM) was 8.2%, the “% Inhibition” value (JAK1 domain2; 0.1µM, Activation Loop) was -1.9% and the “% Inhibition” value (JAK1 domain2; 0.1µM, Lys1) was 0%. The “% Inhibition” value (JAK1 domain2; 1µM, Activation Loop) was -10.1%, the “% Inhibition” value (JAK1 domain2; 1µM, Lys1) was -13.8% and the “% Inhibition” value (JNK1,JNK2,JNK3; 0.1µM) was 2.1%. The “% Inhibition” value (JNK1,JNK2,JNK3; 1µM) was -12%, the “% Inhibition” value (KSR1,KSR2; 0.1µM) was 19.7% and the “% Inhibition” value (KSR1,KSR2; 1µM) was 10.8%. For the same compound, the “% Inhibition” value (LKB1; 0.1µM) was 6.5%, the “% Inhibition” value (LKB1; 1µM) was 0.4% and the “% Inhibition” value (LOK; 0.1µM, ATP Loop) was 26.9%. The “% Inhibition” value (LOK; 0.1µM, Lys1) was 5.3%, the “% Inhibition” value (LOK; 0.1µM, Lys2) was -2.3% and the “% Inhibition” value (LOK; 1µM, ATP Loop) was 29.8%. The “% Inhibition” value (LOK; 1µM, Lys1) was 39.7%, the “% Inhibition” value (LOK; 1µM, Lys2) was 22.4% and the “% Inhibition” value (MST3; 0.1µM, Lys1) was -15.8%. For the same compound, the “% Inhibition” value (MST3; 0.1µM, Lys2) was -6.1%, the “% Inhibition” value (MST3; 1µM, Lys1) was -21.2% and the “% Inhibition” value (MST3; 1µM, Lys2) was -16.2%. For the same compound, the “% Inhibition” value (NEK1; 0.1µM) was 5.9%, the “% Inhibition” value (NEK1; 1µM) was 2.6% and the “% Inhibition” value (NEK6,NEK7; 0.1µM) was -2.4%. The “% Inhibition” value (NEK6,NEK7; 1µM) was -18.6%, the “% Inhibition” value (PIK3CB; 0.1µM) was -27.2% and the “% Inhibition” value (PIK3CB; 1µM) was 12.3%. The “% Inhibition” value (PIK3CD; 0.1µM, peptide TKVNWLAHNVSKDNRQ) was -9.3%, the “% Inhibition” value (PIK3CD; 0.1µM, peptide VNWLAHNVSKDNRQ) was 0.5% and the “% Inhibition” value (PIK3CD; 1µM, peptide TKVNWLAHNVSKDNRQ) was -11.6%. For the same compound, the “% Inhibition” value (PIK3CD; 1µM, peptide VNWLAHNVSKDNRQ) was 1.4%, the “% Inhibition” value (PIP5K3; 0.1µM) was -6.1% and the “% Inhibition” value (PIP5K3; 1µM) was -15.9%. For the same compound, the “% Inhibition” value (PYK2; 0.1µM, Activation Loop) was 8.4%, the “% Inhibition” value (PYK2; 0.1µM, Lys1) was 29.3% and the “% Inhibition” value (PYK2; 1µM, Activation Loop) was 7.1%. For the same compound, the “% Inhibition” value (PYK2; 1µM, Lys1) was -2.2%, the “% Inhibition” value (RSK1,RSK2,RSK3 domain1; 0.1µM) was 14.5% and the “% Inhibition” value (RSK1,RSK2,RSK3 domain1; 1µM) was 16.3%. The “% Inhibition” value (RSK2 domain1; 0.1µM, ATP Loop) was 13.2%, the “% Inhibition” value (RSK2 domain1; 0.1µM, Activation Loop) was 9.2% and the “% Inhibition” value (RSK2 domain1; 0.1µM, Lys2) was -0.1%. For the same compound, the “% Inhibition” value (RSK2 domain1; 1µM, ATP Loop) was 21.8%, the “% Inhibition” value (RSK2 domain1; 1µM, Activation Loop) was 20.3% and the “% Inhibition” value (RSK2 domain1; 1µM, Lys2) was 22.9%. The “% Inhibition” value (RSKL1 domain1; 0.1µM) was -38%, the “% Inhibition” value (RSKL1 domain1; 1µM) was 7.3% and the “% Inhibition” value (SMG1; 0.1µM, peptide DTVTIHSVGGTITILPTKTKPK) was -4.6%. For the same compound, the “% Inhibition” value (SMG1; 0.1µM, peptide SYPYLFKGLEDLHLDER) was 7%, the “% Inhibition” value (SMG1; 1µM, peptide DTVTIHSVGGTITILPTKTKPK) was -3% and the “% Inhibition” value (SMG1; 1µM, peptide SYPYLFKGLEDLHLDER) was -11.6%. For the same compound, the “% Inhibition” value (TLK1; 0.1µM, Lys1) was -0.5%, the “% Inhibition” value (TLK1; 0.1µM, Lys2) was 0% and the “% Inhibition” value (TLK1; 1µM, Lys1) was 3.9%. For the same compound, the “% Inhibition” value (TLK1; 1µM, Lys2) was -13.2%, the “% Inhibition” value (TLK2; 0.1µM, Lys1) was -8.8% and the “% Inhibition” value (TLK2; 0.1µM, Lys2) was -5.5%. For the same compound, the “% Inhibition” value (TLK2; 1µM, Lys1) was -9.2%, the “% Inhibition” value (TLK2; 1µM, Lys2) was -10.6% and the “% Inhibition” value (p38d,p38g; 0.1µM) was 0.8%. For the same compound, the “% Inhibition” value (p38d,p38g; 1µM) was -7.7%.
